Patent US20210002725A1, “METHODS FOR THE DIAGNOSIS OF METABOLIC DISORDERS USING EPIMETABOLIC SHIFTERS, MULTIDIMENSIONAL INTRACELLULAR MOLECULES, OR ENVIRONMENTAL INFLUENCES” (Berg LLC, priority 2009, published 2021)

Tests used:
HK-2 cells = experiment: Diabetes PCR array in cell model for diabetes; assay type: cell-based, human
Procedure: The HK-2 and HASMC cells are normally maintained in culture at 5.5 mM glucose, which is a concentration that corresponds to a range considered normal in human blood. However, in order to simulate a diabetic environment, both cell lines were subsequently maintained at 22 mM glucose, which corresponds to the range observed in human blood associated with chronic hyperglycemia. The cells were subsequently allowed to propagate over 3 passages so that the intracellular regulation processes were functionally adapted to mimic a diabetic state. The choice of cell line was based on the physiologic influence of diabetes on renal dysfunction and progression to end-stage renal disease (ESRD) in addition to the progressive pathophysiology of a compromised cardiovascular function.
The Diabetes PCR array (SABiosciences) offers a screen for 84 genes simultaneously.
A stringent analysis of the Real time PCR data of the HK-2 samples on the Diabetes Arrays (Cat #PAHS-023E, SABiosciences Frederick Md.) was made to exclude all results where gene regulation was not at least a two-fold regulation over HK-2 normal untreated cells with a p value of less than 0.05.

IDH1 = experiment: Western blot of Isocitrate Dehydrogenase-1 levels in cells treated with Coenzyme Q10; assay type: cell-based, human
Procedure: The whole cell pellets were resuspended one at a time in 1 mL of C7 buffer and transferred to labeled 15 mL tubes. The samples were then sonicated in the cold room on ice using 6 sonic pulses with the setting at #14. The samples were spun for a short time to 2500 g after sonication and the samples transferred to 2 ml tubes. The pH was verified of each sample (pH should be 9.0) using the foam remaining in the […] sample tubes.
Alkylation and reduction of samples was performed for each sample by adding 10 ul of 1M acrylamide, 25 ul of tributylphoshene and incubation for 90 mins with intermittent mixing. After incubation, 10 ul of 1M DTT was added and the tubes were spun at 20,000 g at 20 deg C. for 10 minutes and transferred the supernatant to labeled Amicon Ultra centrifugal filter units with a 10 k cut off (Millipore catalog #UFC 801024). The samples were spun for 15 minutes at 2500 g in 2 intervals. The conductivity was measured for Chaps alone as well as the samples using a conductivity meter. If the conductivity of samples is high, then 1 ml of chaps was added for buffer exchange and spun again at 2500 g until the volume was down to 250 ul. When the conductivity was 200 or less the samples were spun in 5 min intervals at 2500 g until the volume of the supernatant was between 150-100 ul. The sample supernatants were transferred to eppendorf tubes and Bradford assay was performed using BSA as standard.
The samples were processed as per standard protocols as described above and the amount of protein in each of the samples was determined by Bradford assay. Sample volumes equivalent to 10 ug of protein were prepared as shown below with Lamelli Loading dye (LDS) and MilliQ water were run on a 4-12% Bis-Tris Novex NuPAGE gel (Invitrogen, cat #NP0323Box)
The gels were run for 50 minutes using 1×MOPS buffer using a NOVEX Xcell Surelock system at 200 V. The gels were then transferred for 1 hour using a NOVEX Xcell Surelock wet transfer protocol at 30 V. The blots were stained with Simply Blue Safestain from Invitrogen (LC6065).
After transfer each of the blots was placed in between 2 Whatman Filter papers and dried for 15-20 minutes. After drying the blots were labeled with the date, the type of samples and either blot 1 or blot 2 using a HB pencil. The molecular weight markers were outlined with the pencil and with single lines for the blue and a doublet for the colored markers. The blots were activated with methanol for 5 seconds, washed with water for 5 minutes, and TBST for 15 minutes. The blots were blocked for 1 hour with 5% blocking reagent in TBS-T at room temperature and then washed 3 times with TBS-T (1×-15′; 2×5′ each). Blot 1 was probed with the primary antibody for IDH1 (Cell Signaling #3997) in TBST with 5% BSA (at 1:1000 dilutions) and blot 2 with the rabbit polyclonal antibody for ATP Citrate Lyase in 5% BSA (Cell Signaling #4332) at 1:1000 dilution by incubation overnight at 4 deg C. with shaking. After the overnight incubation with primary antibodies, the blots were washed 3 times with TBS-T (1×-15′; 2×5′ each) and probed with the secondary antibody (antirabbit; 1:10,000 dilution) for 1 hon the orbital tilting shaker at room temperature. After 1 h of incubation with secondary antibodies, the blots were washed 3 times with TBS-T (1×-15′; 2×5′ each) and then incubated with ECF reagent for 5 mins and then each blot scanned with 5100 Fuji Laser scanner at 25 uM resolution, 16 bit, green laser, at 400V and at 500 V.
The samples were processed and run on a 4-12% Bis-Tris Novex NuPAGE gel as described above. The gels were run, transferred and stained essentially as described above.
After transfer the blot was dried for 15-20 minutes, activated with methanol for 5 seconds, washed with water for 5 minutes, and TBST for 15 minutes. The blot was blocked for 1 hour with 5% blocking reagent in TBS-T at room temperature and then washed 3 times with TBS-T (1×-15′; 2×5′ each). […]

[1] = test system: control and cancer cell lines; experiment: Sensitivity and apoptotic response of a panel of control and cancer cell lines; assay type: cell-based; conditions: various levels of Coenzyme Q10
Procedure: In a first set of experiments, changes to cell morphology/physiology were evaluated by examining the sensitivy and apoptotic response of cells to CoQ10. […] Exemplary experiments are described in detail in Example 3 below.

SKBr3 cells = experiment: Nexin assay for early and late apoptosis (flow cytometry); assay type: cell-based, human; conditions: 50 μM or 100 μM Q10, 24 hours
Text: The 7AAD dye will enter into cells with permeabilized cell membranes; primarily those cells that are in late apoptosis. Annexin-V-PE is a dye that binds to Phosphotidyl serine, which is exposed on the outer surface of the plasma membrane in early apoptotic cells. The Nexin reagent thus can be used to differentiate between different populations of apoptotic cells in a flow cytometer.

SCC cells = experiment: Real-time PCR Apoptosis Array; assay type: cell-based; conditions: 100 μM Q10
Text: The control cells were untreated cells.
RNA was quantified by measuring Optical Density at 260 nm.

COC1=C(OC)C(=O)C(C/C=C(\C)CC/C=C(\C)CC/C=C(\C)CC/C=C(\C)CC/C=C(\C)CC/C=C(\C)CC/C=C(\C)CC/C=C(\C)CC/C=C(\C)CCC=C(C)C)=C(C)C1=O [Q10, Coenzyme Q10]
CEACAM1 RNA transcript (HK-2 cells; HK2(H) cells at 22 mM glucose, particularly 100 μM Coenzyme Q10): highly upregulated | insulin receptor (INSR) expression (HK-2 cells; diabetic HK-2 cells): increase in expression | expression of IDH1 (IDH1; HASMC human aortic smooth muscle cells): did not demonstrate significant changes | expression of IDH1 (IDH1; HDFa primary human derived fibroblasts): did not demonstrate significant changes | IDH1 Average Normalized Intensity (IDH1; HDFa, 24 h, 100 μM): 600 | expression of IDH1 (IDH1; HepG2 cells): increased expression | expression of IDH1 (IDH1; MCF-7 cells): increased expression | IDH1 Normalized Intensity (IDH1; PACA2, 5 g, 48 h, 100 μM): 860 | expression of IDH1 (IDH1; PaCa-2 cells): increased expression | expression of IDH1 (IDH1; SCC25 cell lines): moderate increase | expression of IDH1 (IDH1; SKMEL28 cells): increased expression | expression of IDH1 (IDH1; nFIB fibroblasts): did not demonstrate significant changes | apoptotic response of cancer vs control cell lines [1]: induction of apoptosis and cell death in the cancer cells only | early and late apoptosis (SKBr3 cells): did not show any significant increases of early and late apoptosis | Regulation (mRNA) at 6 hours (SCC cells): Down regulated at 6 | Regulation (mRNA) at 24 hours (SCC cells; gene BAX): Up regulated at 24 hours. | Regulation (mRNA) at 24 hours (SCC cells; gene BCL2L1): hours and then up | Regulation (mRNA) at 24 hours (SCC cells; gene BNIP3): Down regulated at 24
